Here are results for 19 molecules from patent US20230338491A1, “METHOD FOR SCREENING INDIVIDUAL TUMOR NEOANTIGEN PEPTIDE, AND VACCINE FORMULATION THEREOF” (HANGZHOU NEOANTIGEN THERAPEUTICS CO., LTD., priority 2021, published 2023).

The term solubility denotes how much of the substance goes into solution per volume.

The nature of the series: solubility comparison test in water and mannitol solutions. The format is physicochemical. The source says:
Mannitol is a common adjuvant (skeleton forming agent) of freeze-dried preparation, which is used as a carrier to form a hard uniform skeleton so as to improve appearance of the freeze-dried preparation in glass bottles. […] Hydroxyl groups in mannitol molecule can form hydrogen bonds with carbonyl groups in peptide bonds, which cannot directly promote dissolution of polypeptides, but can promote formation of micelle. Therefore, solubilization of mannitol is mainly solubility enhancement after micelle formation. Results of solubility comparison test of the same polypeptide in water and mannitol solutions with different concentrations shown in table 7 as follows: […]

Setting [1] is: 1% of mannitol solution, read-out: Solubility in 1% of mannitol solution.
[2] abbreviates: 2% of mannitol solution, read-out: Solubility in 2% of mannitol solution.
The mark [3] stands for this setting: water, read-out: Solubility in water.
Where [4] appears, read: Solubility in 1% of mannitol solution.
[5] abbreviates: Solubility in 2% of mannitol solution.

Read-outs that look alike come from different tables or passages of the source. Ends that are not written are not given here. Some results are limits rather than exact numbers.

On to SVFGDRITGETIRSQNVMAAASK [WKYE17], for which the solubility by setting is: under setting [1], ≥ 1000 µg/mL; under setting [2], ≥ 1000 µg/mL; under setting [3], < 100 µg/mL.

As for SRKLEDYGEQKSMSISTAKRLAEFLGDQK [HMZH59], the solubility under setting [1] was ≥ 1000 µg/mL, the solubility under setting [2] was ≥ 1000 µg/mL and the solubility under setting [3] amounted to 300 µg/mL.

Take KLVFVRKSLNRIEFRECREEILKFLKK [GWMI13]: the solubility under setting [1] is ≥ 1000 µg/mL, the solubility under setting [2] is ≥ 1000 µg/mL and the solubility under setting [3] was < 100 µg/mL.

In the case of KKKGQQLSGVNAIYFYADQIYLSAGVPEEH [GWMI10], the solubility runs as follows: under setting [1], ≥ 1000 µg/mL; under setting [2], ≥ 1000 µg/mL; under setting [3], < 100 µg/mL.

Regarding DIQDLKTCIASTTQNIEQKKK [WJIA11], the solubility reads like this: under setting [1], ≥ 1000 µg/mL; under setting [2], ≥ 1000 µg/mL; under setting [3], < 100 µg/mL.

On to KKKKFVALVLSTLHMLTYGWTRAFEESRYK [ZZJI44], for which the solubility is ≥ 1000 µg/mL under setting [1], ≥ 1000 µg/mL under setting [2] and < 100 µg/mL under setting [3].

Turning to YKQLTIQVLLDRLVLQRLYPLAIQIKK [YMZH10], the solubility by setting is: under setting [1], ≥ 1000 µg/mL; under setting [2], ≥ 1000 µg/mL; under setting [3], 300 µg/mL.

With FHDQPHLKRKAVCSFQIYAVPWQGT [HMZH51], the solubility runs as follows: under setting [1], ≥ 10000 µg/mL; under setting [2], ≥ 10000 µg/mL; under setting [3], < 2000 µg/mL.

As to `CC[C@H](C)[C@H](NC(=O)[C@H](CC(C)C)NC(=O)[C@H](CCC(N)=O)NC(=O)[C@@H](NC(=O)[C@@H](NC(=O)[C@H](CC(C)C)NC(=O)[C@H](C)NC(=O)[C@H](CO)NC(=O)[C@H](CCCCN)NC(=O)CNC(=O)[C@@H](NC(=O)CNC(=O)[C@H](CC(=O)O)NC(=O)[C@H](C)NC(=O)CNC(=O)[C@@H](NC(=O)[C@@H](NC(=O)[C@@H](N)CCCCN)C(C)C)C(C)C)C(C)C)[C@@H](C)O)[C@@H](C)CC)C(=O)N[C@@H](CCC(N)=O)C(=O)N[C@@H](CC(N)=O)C(=O)N[C@@H](Cc1c[nH]cn1)C(=O)O` [GWMI01], the solubility reads like this: under setting [4], ≥ 1000 µg/mL; under setting [5], ≥ 1000 µg/mL; (Solubility in water) < 100 µg/mL.

On to KFKYVGTMEASEDATFNKITRSLQDLQQK [HMZH66], for which the solubility reads like this: under setting [1], ≥ 10000 µg/mL; under setting [2], ≥ 10000 µg/mL; under setting [3], ≤ 1500 µg/mL.

Regarding “PGWSLTLGLRCSSRLGLPK [LYLI37, PGWSLTLGLRCSSRLGLPK]”, the solubility by setting is: under setting [1], ≥ 1000 µg/mL; under setting [2], ≥ 1000 µg/mL; under setting [3], < 100 µg/mL.

On to “TSLKGEIAFDPRRAYYLWF [LXJI54, TSLKGEIAFDPRRAYYLWF]”, for which the solubility reads like this: under setting [1], ≥ 1000 µg/mL; under setting [2], ≥ 1000 µg/mL; under setting [3], < 100 µg/mL.

With GQAFKYSSNLLRHMRTHTGEKPF [HMZH60], the solubility under setting [4] was ≥ 10000 µg/mL, the solubility under setting [5] is ≥ 10000 µg/mL and the solubility (Solubility in water) is < 2000 µg/mL.

Regarding KLTLASWGPKMVLLRLEHQFAVGK [YMZH14], the solubility is ≥ 1000 µg/mL under setting [1], ≥ 1000 µg/mL under setting [2] and 300 µg/mL under setting [3].

As to FITRPPHRFLSLLCLGLRIPQLSV [YMZH19], the solubility under setting [1] is > 1000 µg/mL, the solubility under setting [2] is > 1000 µg/mL and the solubility under setting [3] was < 100 µg/mL.

For SSPAEFFELMKGQIRIAKRRVVMASLYLGT [TZQI51], the solubility under setting [1] was ≥ 1000 µg/mL, the solubility under setting [2] was ≥ 1000 µg/mL and the solubility under setting [3] was < 100 µg/mL.

On to KGFTQGDVGLAMGKLYRNDFSQTTISRFEA [TZQI66], for which the solubility was ≥ 1000 µg/mL under setting [1], ≥ 1000 µg/mL under setting [2] and < 100 µg/mL under setting [3].

With KEQMMREKEKLMLRLQDYEEKTKK [ZZJI58], the solubility by setting is: under setting [1], ≥ 1000 µg/mL; under setting [2], ≥ 1000 µg/mL; under setting [3], < 100 µg/mL.

Consider FAEKLTLILQEKYKNYWYPEKPSKGQAY [YMZH17], for which the solubility under setting [1] is ≥ 1000 µg/mL, the solubility under setting [2] is ≥ 1000 µg/mL and the solubility under setting [3] is 300 µg/mL.
